Results on 32 compounds are retold here after US20090030024A1, “THIAZOLES AS FUNGICIDES” (priority 2005, published 2009).

For orientation: chromatographic logP means lipophilicity estimated from chromatographic retention. A higher chromatographic logP goes with higher lipophilicity.

Where two headings read alike, the source gives them in different places.

Data set [1] can be described thus: logP determination by retention times (calibration with alkan-2-ones).
Data set [2] deals with Leptosphaeria nodorum. As to the kind of experiment: Leptosphaeria nodorum test (wheat)/protective. It is filed as in vivo. The following applies: Parastagonospora nodorum, 240 h, protective spray, active compound concentration 1000 ppm, evaluation 10 days after inoculation, read-out: efficacy. On the procedure: Leptosphaeria Nodorum Test (Wheat)/Protective [table] […] After the spray coating has dried on, the plants are sprayed with a spore suspension of Leptosphaeria nodorum. The plants remain in an incubation cabin at 20° C. and 100% relative atmospheric humidity for 48 hours. The plants are placed in a greenhouse at a temperature of about 20° C. and a relative atmospheric humidity of 80%.

The test system of data set [3] is Fusarium graminearum. Briefly: whole plant or invertebrate. It is filed as in vivo. The following applies: in Hordeum vulgare, 96 h, read-out: efficacy.
Data set [4] deals with Phytophthora infestans. Briefly: whole plant or invertebrate. It is filed as in vivo. The following applies: in Solanum lycopersicum, 168 h, read-out: efficacy.
Setting [5] is: logP, * HPLC reversed-phase C18, 40° C., mobile phase 0.1% aqueous formic acid and acetonitrile, linear gradient 10% to 95% acetonitrile.
Setting [6] is: logP, values marked *: HPLC on reversed-phase C 18, 40° C., mobile phase 0.1% aqueous formic acid and acetonitrile, linear gradient 10% to 95% acetonitrile.

Take `CC(=O)c1cccc(Nc2nccc(-c3sc(C4CC4)nc3C)n2)c1` [Example 7, 1-(3-{[4-(2-cyclopropyl-4-methyl-1,3-thiazol-5-yl)pyrimidin-2-yl]amino}phenyl)ethanone]: in data set [1], the chromatographic logP came out at 2.88. Also, in data set [2], the pest or weed control at 1000 ppm was at least 70%.
`CCc1nc(C)c(-c2ccnc(Nc3cccc(C(C)=O)c3)n2)s1` [Example 9, 1-(3-{[4-(2-ethyl-4-methyl-1,3-thiazol-5-yl)pyrimidin-2-yl]amino}phenyl)ethanone]: the chromatographic logP in data set [1] came to 2.7. Besides, the pest or weed control at 1000 ppm in data set [3] is at least 70%.
`Cc1nc(C)c(-c2ccnc(Nc3ccc(N(C)C)c(Cl)c3)n2)s1` [Example 62, 2-chloro-N4-[4-(2,4-dimethyl-1,3-thiazol-5-yl)pyrimidin-2-yl]-N1,N1-dimethylbenzene-1,4-diamine] displayed a chromatographic logP in data set [1] of 2.06. Also, the pest or weed control at 1000 ppm in data set [2] is at least 70%.
With `COCCOC(=O)Nc1ccc(Nc2nccc(-c3sc(N)nc3C)n2)cc1` [Example 69, 2-methoxyethyl-(4-{[4-(2-amino-4-methyl-1,3-thiazol-5-yl)pyrimidin-2-yl]amino}phenyl)carbamate], the chromatographic logP in data set [1] worked out at 1.4. Further, the pest or weed control at 500 ppm in data set [4] was at least 70%.
For `CCc1nc(C)c(-c2ccnc(Nc3ccc(NC(=O)OCCOC)cc3)n2)s1` [Example 73, 2-methoxyethyl-(4-{[4-(2-ethyl-4-methyl-1,3-thiazol-5-yl)pyrimidin-2-yl]amino}phenyl)carbamate], the chromatographic logP in data set [1] stood at 2.36. Besides, in data set [2], the pest or weed control at 1000 ppm was at least 70%. The pest or weed control at 500 ppm in data set [4] was at least 70%.
In the case of `Cc1nc(C)c(-c2ccnc(Nc3ccc(F)cc3)n2)s1` [Example 186, 4-(2,4-dimethyl-1,3-thiazol-5-yl)-N-(4-fluorophenyl)pyrimidine-2-amine], in data set [1], the chromatographic logP was determined as 2.65. Further, the pest or weed control at 500 ppm in data set [4] is at least 70%.
Compound `COc1cc(Nc2nccc(-c3sc(N)nc3C)n2)cc(OC)c1OC` [Example 201, 4-(2-amino-4-methyl-1,3-thiazol-5-yl)-N-(3,4,5-trimethoxyphenyl)pyrimidine-2-amine] gave a chromatographic logP in data set [1] of 1.51. The pest or weed control at 500 ppm in data set [4] is at least 70%.
In the case of `COc1ccc(Nc2nccc(-c3sc(N)nc3C)n2)cc1Cl` [Example 203, 4-(2-amino-4-methyl-1,3-thiazol-5-yl)-N-(3-chloro-4-methoxyphenyl)pyrimidine-2-amine], the chromatographic logP in data set [1] is 1.63. Also, in data set [4], the pest or weed control at 500 ppm is at least 70%.
In data set [1], `Cc1nc(N)sc1-c1ccnc(Nc2ccccc2)n1` [Example 210, 4-(2-amino-4-methyl-1,3-thiazol-5-yl)-N-phenylpyrimidine-2-amine] showed a chromatographic logP of 1.51. In addition, the pest or weed control at 500 ppm in data set [4] was at least 70%.
In the case of `COc1cc(Nc2nccc(-c3sc(C4CC4)nc3C)n2)cc(OC)c1OC` [Example 222, 4-(2-cyclopropyl-4-methyl-1,3-thiazol-5-yl)-N-(3,4,5-trimethoxyphenyl)pyrimidine-2-amine], the chromatographic logP in data set [1] stood at 2.77. Besides, the pest or weed control at 1000 ppm in data set [3] is at least 70%.
Compound `CCc1nc(C)c(-c2ccnc(Nc3cc(OC)c(OC)c(OC)c3)n2)s1` [Example 235, 4-(2-ethyl-4-methyl-1,3-thiazol-5-yl)-N-(3,4,5-trimethoxyphenyl)pyrimidine-2-amine] returned a chromatographic logP in data set [1] of 2.61. In addition, in data set [3], the pest or weed control at 1000 ppm is at least 70%. Further, the pest or weed control at 500 ppm in data set [4] was at least 70%.
For the compound `CCc1nc(C)c(-c2ccnc(Nc3ccc(F)cc3)n2)s1` [Example 239, 4-(2-ethyl-4-methyl-1,3-thiazol-5-yl)-N-(4-fluorophenyl)pyrimidine-2-amine], in data set [1], the chromatographic logP turned out to be 3.1. The pest or weed control at 500 ppm in data set [4] is at least 70%.
On to `CCc1nc(C)c(-c2ccnc(Nc3ccccc3)n2)s1` [Example 243, 4-(2-ethyl-4-methyl-1,3-thiazol-5-yl)-N-phenylpyrimidine-2-amine], for which the chromatographic logP in data set [1] was 3.07. In addition, the pest or weed control at 1000 ppm in data set [3] is at least 70%. Moreover, the pest or weed control at 500 ppm in data set [4] is at least 70%.
Regarding `Cc1nc(C)c(-c2ccnc(Nc3ccc(O)cc3)n2)s1` [Example 321, 4-{[4-(2,4-dimethyl-1,3-thiazol-5-yl)pyrimidin-2-yl]amino}phenol], the chromatographic logP in data set [1] was found to be 1.62. In addition, the pest or weed control at 500 ppm in data set [4] is at least 70%.
In data set [1], `Cc1nc(C2CC2)sc1-c1ccnc(Nc2ccc(O)cc2)n1` [Example 324, 4-{[4-(2-cyclopropyl-4-methyl-1,3-thiazol-5-yl)pyrimidin-2-yl]amino}phenol] registered a chromatographic logP of 2.01. The pest or weed control at 500 ppm in data set [4] is at least 70%.
Turning to `CCc1nc(C)c(-c2ccnc(Nc3ccc(O)cc3)n2)s1` [Example 327, 4-{[4-(2-ethyl-4-methyl-1,3-thiazol-5-yl)pyrimidin-2-yl]amino}phenol], the chromatographic logP in data set [1] was 1.88. In addition, the pest or weed control at 500 ppm in data set [4] is at least 70%.
In data set [1], `Cc1nc(C(C)C)sc1-c1ccnc(Nc2ccc(O)cc2)n1` [Example 329, 4-{[4-(2-isopropyl-4-methyl-1,3-thiazol-5-yl)pyrimidin-2-yl]amino}phenol] had a chromatographic logP of 2.18. Further, the pest or weed control at 500 ppm in data set [4] was at least 70%.
In turn, `CCOC(=O)c1cccc(Nc2nccc(-c3sc(C(C)C)nc3C)n2)c1` [Example 375, ethyl-3-{[4-(2-isopropyl-4-methyl-1,3-thiazol-5-yl)pyrimidin-2-yl]amino}benzoate] returned a chromatographic logP in data set [1] of 3.83. The pest or weed control at 1000 ppm in data set [3] was at least 70%.
In data set [1] (setting [5]), `CCc1nc(C)c(-c2ccnc(Nc3ccc(NC(C)=O)cc3)n2)s1` [Example 460, N-(4-{[4-(2-ethyl-4-methyl-1,3-thiazol-5-yl)pyrimidin-2-yl]amino}phenyl)acetamide] gave a chromatographic logP of 1.88. For the same compound, the pest or weed control at 500 ppm in data set [4] was at least 70%.
Turning to `Cc1nc(N)sc1-c1ccnc(Nc2ccc(CNC(=O)OC(C)(C)C)cc2)n1` [Example 628, tert-butyl-(4-{[4-(2-amino-4-methyl-1,3-thiazol-5-yl)pyrimidin-2-yl]amino}benzyl)carbamate], the chromatographic logP in data set [1] (setting [5]) was found to be 1.86. Further, the pest or weed control at 500 ppm in data set [4] was at least 70%.
`Cc1nc(C2CC2)sc1-c1ccnc(Nc2ccc(CNC(=O)OC(C)(C)C)cc2)n1` [Example 630, tert-butyl-(4-{[4-(2-cyclopropyl-4-methyl-1,3-thiazol-5-yl)pyrimidin-2-yl]amino}benzyl)carbamate]: the chromatographic logP in data set [1] (setting [5]) was determined as 3.46. In data set [4], the pest or weed control at 500 ppm was at least 70%.
`Cc1nc(C)c(-c2ccnc(Nc3ccc(F)cc3F)n2)s1` [Example 759, N-(2,4-difluorophenyl)-4-(2,4-dimethyl-1,3-thiazol-5-yl)pyrimidine-2-amine] came in with a chromatographic logP in data set [1] (setting [5]) of 2.8. The pest or weed control at 1000 ppm in data set [2] is at least 70%.
`COCCOc1nc(C)c(-c2ccnc(Nc3cccc(C(C)=O)c3)n2)s1` [Example 912, 1-[3-({4-[2-(2-methoxyethoxy)-4-methyl-1,3-thiazol-5-yl]pyrimidin-2-yl}amino)phenyl]ethanone] had a chromatographic logP in data set [1] (setting [6]) of 2.64.
The compound `COCCOc1nc(C)c(-c2ccnc(Nc3cccc(Cl)c3)n2)s1` [Example 913, N-(3-chlorophenyl)-4-[2-(2-methoxyethoxy)-4-methyl-1,3-thiazol-5-yl]pyrimidine-2-amine] gave a chromatographic logP in data set [1] (setting [6]) of 3.57.
For the compound `COCCOc1nc(C)c(-c2ccnc(Nc3cccc(OC)c3)n2)s1` [Example 914, 4-[2-(2-methoxyethoxy)-4-methyl-1,3-thiazol-5-yl]-N-(3-methoxyphenyl)pyrimidine-2-amine], the chromatographic logP in data set [1] (setting [6]) is 2.92.
For the compound `COCCOc1nc(C)c(-c2ccnc(Nc3ccc(OC)nc3)n2)s1` [Example 915, 4-[2-(2-methoxyethoxy)-4-methyl-1,3-thiazol-5-yl]-N-(6-methoxypyridin-3-yl)pyrimidine-2-amine], in data set [1] (setting [6]), the chromatographic logP was determined as 2.34.
Compound `COCCOc1nc(C)c(-c2ccnc(Nc3ccc(C(C)=O)cc3)n2)s1` [Example 916, 1-[4-({4-[2-(2-methoxyethoxy)-4-methyl-1,3-thiazol-5-yl]pyrimidin-2-yl}amino)phenyl]ethanone] showed a chromatographic logP in data set [1] (setting [6]) of 2.58.
Turning to `COCCOc1nc(C)c(-c2ccnc(Nc3ccc(N4CCCC4=O)cc3)n2)s1` [Example 917, 1-[4-({4-[2-(2-methoxyethoxy)-4-methyl-1,3-thiazol-5-yl]pyrimidin-2-yl}amino)phenyl]pyrrolidin-2-one], in data set [1] (setting [6]), the chromatographic logP is 2.23.
The compound `Cc1nc(C(C)C)sc1-c1ccnc(Nc2cccnc2)n1` [Example 919, 4-(2-isopropyl-4-methyl-1,3-thiazol-5-yl)-N-pyridin-3-ylpyrimidine-2-amine] displayed a chromatographic logP in data set [1] (setting [6]) of 1.51.
`CCc1nc(C)c(-c2nc(Nc3cccc(Cl)c3)ncc2Br)s1` [Example 920, 5-bromo-N-(3-chlorophenyl)-4-(2-ethyl-4-methyl-1,3-thiazol-5-yl)pyrimidine-2-amine] registered a chromatographic logP in data set [1] (setting [6]) of 4.36.
Still for that read-out and setting: for `CCc1nc(C)c(-c2nc(Nc3ccc(S(=O)(=O)N(C)C)cc3)ncc2Br)s1` [Example 921, 4-{[5-bromo-4-(2-ethyl-4-methyl-1,3-thiazol-5-yl)pyrimidin-2-yl]amino}-N,N-dimethylbenzenesulphonamide] the value was 3.36.
Take `Cc1nc(C(C)C)sc1-c1nc(Nc2cccc(Cl)c2)ncc1Br` [Example 922, 5-bromo-N-(3-chlorophenyl)-4-(2-isopropyl-4-methyl-1,3-thiazol-5-yl)pyrimidine-2-amine]: the chromatographic logP in data set [1] (setting [6]) is 4.9.
